Test results: patent publication US20100022542A1, “COMPOUNDS EXHIBITING THROMBOPOIETIN RECEPTOR AGONISM” (Shionogi & Co., Ltd., priority 2000, published 2010)
pEC50: −log10 of the molar value.

Biological target: T1, human TPO receptor (hTPOR) (Homo sapiens, UniProt P40238)
T1 construct: expressed in transfected cells; host or cells: BaF-B03 (murine IL-3 dependent cell line)
T1 sequence (P40238 26-635): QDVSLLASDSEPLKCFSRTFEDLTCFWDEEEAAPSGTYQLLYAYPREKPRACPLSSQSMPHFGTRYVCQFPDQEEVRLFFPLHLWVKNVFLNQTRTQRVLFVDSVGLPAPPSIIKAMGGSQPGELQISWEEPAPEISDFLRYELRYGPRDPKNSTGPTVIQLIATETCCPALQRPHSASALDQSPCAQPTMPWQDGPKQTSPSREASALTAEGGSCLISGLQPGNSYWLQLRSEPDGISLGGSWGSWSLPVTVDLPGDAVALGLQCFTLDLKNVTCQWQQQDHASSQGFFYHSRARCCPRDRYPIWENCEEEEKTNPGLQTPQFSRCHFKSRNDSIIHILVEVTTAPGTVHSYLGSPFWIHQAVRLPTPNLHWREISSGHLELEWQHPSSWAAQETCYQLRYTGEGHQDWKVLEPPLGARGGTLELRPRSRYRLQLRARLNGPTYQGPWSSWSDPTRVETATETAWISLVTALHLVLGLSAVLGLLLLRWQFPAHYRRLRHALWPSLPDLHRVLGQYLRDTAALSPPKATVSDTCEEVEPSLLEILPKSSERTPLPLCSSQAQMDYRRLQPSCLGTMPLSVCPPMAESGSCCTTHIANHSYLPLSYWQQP
Assay: Proliferation of TPO dependent BaF/hTPOR cells, WST-1, thrombopoietic activity ED50 (Test Example 3)
Format: cell-based
Details: 20 h incubation then WST-1 4 h, absorbance at 450 nm
Excerpt: FIG. 2: The chart represents proliferation of the human TPO dependent cells bearing human TPO receptors by the present invention compound, wherein the x-axis is concentration of the present invention compound, and the y-axis is the absorbance as an indicator of cell proliferation. Open circles indicate a response of human TPO, and closed circles indicate a response of the compound (B-1).
The TPO dependent BaF/hTPOR cell line which was established by introducing human TPO receptor (hTPOR) into BaF-B03 cells according to Collins et al (J. Cell. Physiol., 137:293-298 (1988)) was used to test the thrombopoietic activity of the present compound. The DNA sequences and encoded peptide sequences for human hTPOR have been described by Vigon et al (Proc. Natl. Acad. Sci. USA, 89:5640-5644 (1992)). TPO dose not have any ability to support proliferation of interleukin-3 dependent parental cell line BaF-B03. BAF/hTPOR cells were maintained in RPMI medium and WEHI-3B conditioned medium as a source of murine interleukin-3 (IL-3). These cells were washed and resuspended in RPMI medium without a source of murine IL-3 and seeded into each well of 96-well microtiter plates at a density of 5×10^4 cells per well in the absence or presence of various concentration of hTPO or the present compound. After incubation at 37° C. for 20 hours in the 5% CO2 incubator, 10% WST-1 reagent (Takara Biomedicals, Japan) was added to each wells and the cells were further incubated for 4 hours. Effect of the present compound on the growth of BAF/mTPOR cell line which was established by introducing murine TPO receptor (mTPOR) into BAF-B03 cells is shown in FIG. 3. Table 8 exemplifies the ED50 for tested compounds of the present invention, wherein the ED50 is the half concentration of the concentration showing the maximum thrombopoietic activity.

pEC50	SMILES
6.62	C/C(=C\c1ccc(C(=O)Nc2nc(-c3ccc(Cl)c(Cl)c3)cs2)cc1)C(=O)NC1CCCC1 [Compound B-38]
6.82	CCNC(=O)/C(=C/c1ccc(C(=O)Nc2nc(-c3ccc(Cl)c(Cl)c3)cs2)cc1)CC [Compound B-19]
6.59	NC(=O)/C=C/c1ccc(C(=O)Nc2nc(-c3ccc(Cl)c(Cl)c3)cs2)cc1 [Compound B-2]
6.91	CC(=Cc1ccc(C(=O)Nc2nc(-c3ccc(Cl)c(Cl)c3)cs2)cc1)C(=O)N(C)C [Compound B-5]
6.68	C/C(=C\c1ccc(C(=O)Nc2nc(-c3ccc(Cl)c(Cl)c3)cs2)cc1)C(=O)Nc1cccnc1 [Compound B-12]
6.04	O=C(O)C(Br)=Cc1ccc(C(=O)Nc2nc(-c3ccc(Cl)c(Cl)c3)cs2)cc1 [Compound C-4]
7.08	CCNC(=O)C(C)=Cc1ccc(C(=O)Nc2nc(-c3ccc(Cl)c(Cl)c3)cs2)cc1 [Compound B-6]
7.96	CCCCCc1cccc2c1CCc1sc(NC(=O)c3ccc(/C=C(\Cl)C(=O)O)cc3)nc1-2 [Compound J-15]
6.76	CC(=Cc1ccc(C(=O)Nc2nc(-c3ccc(Cl)c(Cl)c3)cs2)cc1)S(=O)(=O)N(C)C [Compound F-1]
6.25	C/C(=C\c1ccc(C(=O)Nc2nc(-c3ccc(Cl)c(Cl)c3)cs2)cc1)C(=O)NCCC(=O)O [Compound B-28]
6.97	Cc1sc(NC(=O)c2ccc(/C=C(\Cl)C(=O)O)cc2)nc1-c1cccc(C(F)(F)F)c1F [Compound J-12]
6.81	CNC(=O)/C=C/c1ccc(C(=O)Nc2nc(-c3ccc(Cl)c(Cl)c3)cs2)cc1 [Compound B-3]
6.58	COC(=O)CCc1ccc(C(=O)Nc2nc(-c3ccc(Cl)c(Cl)c3)cs2)cc1 [Compound G-1]
6.75	C/C(=C\c1ccc(C(=O)Nc2nc(-c3ccc(Cl)c(Cl)c3)cs2)cc1)C(=O)NCC(F)(F)F [Compound B-31]
6.40	CCOC(=O)C(F)Cc1ccc(C(=O)Nc2nc(-c3ccc(Cl)c(Cl)c3)cs2)cc1 (centres unmarked) [Compound G-7]
6.52	C/C(=C\c1ccc(C(=O)Nc2nc(-c3ccc(Cl)c(Cl)c3)cs2)cc1)C(=O)NCc1ccc(F)cc1 [Compound B-14]
6.37	CC(Cc1ccc(C(=O)Nc2nc(-c3ccc(Cl)c(Cl)c3)cs2)cc1)C(=O)O (centres unmarked) [Compound G-3]
6.74	C/C(=C\c1ccc(C(=O)Nc2nc(-c3ccc(Cl)c(Cl)c3)cs2)cc1)C(=O)NN(C)C [Compound B-29]
6.62	O=C(Nc1nc(-c2ccc(Cl)c(Cl)c2)cs1)c1ccc(CC(Cl)C(=O)O)cc1 (centres unmarked) [Compound G-4]
6.59	COC(=O)C(Cl)Cc1ccc(C(=O)Nc2nc(-c3ccc(Cl)c(Cl)c3)cs2)cc1 (centres unmarked) [Compound G-5]
6.52	CC(=O)NNC(=O)/C(C)=C/c1ccc(C(=O)Nc2nc(-c3ccc(Cl)c(Cl)c3)cs2)cc1 [Compound B-43]
6.37	CC/C(=C\c1ccc(C(=O)Nc2nc(-c3ccc(Cl)c(Cl)c3)cs2)cc1)C(=O)NCc1ccccc1 [Compound B-20]
6.63	COCCNC(=O)/C(C)=C/c1ccc(C(=O)Nc2nc(-c3ccc(Cl)c(Cl)c3)cs2)cc1 [Compound B-42]

Second part, the compound before the results:

SMILES	pEC50
CCOC(=O)/C(C)=C/c1ccc(C(=O)Nc2nc(-c3cccc(OC(F)(F)F)c3)cs2)cc1 [Compound A-19]	6.77
O=C(O)/C=C/c1ccc(C(=O)Nc2nc(-c3ccc(Cl)c(Cl)c3)cs2)cc1 [Compound A-4]	6.91
CCC(=Cc1ccc(C(=O)Nc2nc(-c3ccc(Cl)c(Cl)c3)cs2)cc1)C(=O)O [Compound A-6]	6.61
O=C(O)/C(Cl)=C/c1ccc(C(=O)Nc2nc(-c3c(F)cccc3F)cs2)cc1 [Compound A-51]	6.25
O=C(O)/C(Cl)=C/c1ccc(C(=O)Nc2nc(-c3cccc(-c4ccc(F)cc4)c3F)cs2)cc1 [Compound A-88]	7.55
O=C(O)/C(Cl)=C/c1ccc(C(=O)Nc2nc(-c3ccc(C(F)(F)F)cc3)cs2)cc1 [Compound A-40]	7.33
O=C(O)/C(Cl)=C/c1ccc(C(=O)Nc2nc(-c3cccc(-c4ccccc4)c3)cs2)cc1 [Compound A-54]	7.19
O=C(O)/C(Cl)=C/c1ccc(C(=O)Nc2nc(-c3ccc(Cl)c(Cl)c3)cs2)cc1 [Compound A-14]	7.77
O=C(O)/C(Cl)=C/c1ccc(C(=O)Nc2nc(-c3ccc(F)c(Cl)c3)cs2)cc1 [Compound A-75]	7.14
O=C(O)/C(Cl)=C/c1ccc(C(=O)Nc2nc(-c3cc(C(F)(F)F)cc(C(F)(F)F)c3)cs2)cc1 [Compound A-65]	7.55
O=C(O)/C(Cl)=C/c1ccc(C(=O)Nc2nc(-c3cc(C(F)(F)F)ccc3F)cs2)cc1 [Compound A-79]	6.39
O=C(O)/C(Cl)=C/c1ccc(C(=O)Nc2nc(-c3ccc(-c4ccccc4)cc3)cs2)cc1 [Compound A-47]	6.29
C/C(=C\c1ccc(C(=O)Nc2nc(-c3cccc(OC(F)(F)F)c3)cs2)cc1)C(=O)O [Compound A-20]	6.21
CCCCCc1cccc(-c2csc(NC(=O)c3ccc(/C=C(\Cl)C(=O)O)cc3)n2)c1F [Compound A-84]	7.64
CCOC(=O)C(=Cc1ccc(C(=O)Nc2nc(-c3ccc(Cl)c(Cl)c3)cs2)cc1)CC [Compound A-5]	6.01
CCCCCCc1cccc(-c2csc(NC(=O)c3ccc(/C=C(\Cl)C(=O)O)cc3)n2)c1F [Compound A-93]	8.10
CCOC(=O)C(Cl)=Cc1ccc(C(=O)Nc2nc(-c3ccc(Cl)c(Cl)c3)cs2)cc1 [Compound A-11]	7.47
CCCCc1cccc(-c2csc(NC(=O)c3ccc(/C=C(\Cl)C(=O)O)cc3)n2)c1 [Compound A-55]	7.43

SMILES	pEC50
CC(=Cc1ccc(C(=O)Nc2nc(-c3ccc(F)c(F)c3)cs2)cc1)C(=O)O [Compound A-10]	6.44
O=C(O)/C(Cl)=C/c1ccc(C(=O)Nc2nc(-c3ccc(F)cc3)cs2)cc1 [Compound A-38]	6.61
O=C(O)/C(Cl)=C/c1ccc(C(=O)Nc2nc(-c3ccc(OC(F)(F)F)cc3)cs2)cc1 [Compound A-76]	6.69
O=C(O)/C(Cl)=C/c1ccc(C(=O)Nc2nc(-c3cccc(OC(F)(F)F)c3)cs2)cc1 [Compound A-32]	7.40
O=C(O)/C(Cl)=C/c1ccc(C(=O)Nc2nc(-c3cccc(F)c3F)cs2)cc1 [Compound A-72]	6.92
O=C(O)/C(F)=C/c1ccc(C(=O)Nc2nc(-c3ccc(Cl)c(Cl)c3)cs2)cc1 [Compound A-43]	7.15
O=C(O)/C(Cl)=C/c1ccc(C(=O)Nc2nc(-c3cccc(F)c3)cs2)cc1 [Compound A-30]	6.56
O=C(O)/C(Cl)=C/c1ccc(C(=O)Nc2nc(-c3cc(F)c(F)cc3F)cs2)cc1 [Compound A-62]	7.00
C/C(=C\c1ccc(C(=O)Nc2nc(-c3cccc(C(F)(F)F)c3)cs2)cc1)C(=O)O [Compound A-28]	7.00
Cc1ccc(C)c(-c2csc(NC(=O)c3ccc(/C=C(\Cl)C(=O)O)cc3)n2)c1 [Compound A-87]	6.15
O=C(O)/C(Cl)=C/c1ccc(C(=O)Nc2nc(-c3ccc4c(c3)CCC4)cs2)cc1 [Compound A-73]	7.12
O=C(O)/C(F)=C/c1ccc(C(=O)Nc2nc(-c3cccc(C(F)(F)F)c3)cs2)cc1 [Compound A-44]	6.64
O=C(O)/C(Cl)=C/c1ccc(C(=O)Nc2nc(-c3ccc(F)c(Br)c3)cs2)cc1 [Compound A-63]	7.60
O=C(O)/C(Cl)=C/c1ccc(C(=O)Nc2nc(-c3cc(F)c(F)c(F)c3F)cs2)cc1 [Compound A-77]	6.96
CCCCCc1ccc(-c2csc(NC(=O)c3ccc(/C=C(\Cl)C(=O)O)cc3)n2)cc1 [Compound A-49]	6.94
CCCCOc1ccc(-c2csc(NC(=O)c3ccc(/C=C(\Cl)C(=O)O)cc3)n2)cc1 [Compound A-59]	6.79
CC(C)Cc1ccc(-c2csc(NC(=O)c3ccc(/C=C(\Cl)C(=O)O)cc3)n2)cc1 [Compound A-64]	6.69
O=C(O)/C(Cl)=C/c1ccc(C(=O)Nc2nc(-c3ccc(C(F)(F)F)cc3F)cs2)cc1 [Compound A-60]	7.64
